Source: article PMC11645656, “MRGPRX4 mediates phospho-drug associated pruritus in a humanized mouse model” (Science translational medicine, 2024)
pEC50: −log10 of the molar value. Several values for one entry are separate records, joined by “and”; a condition that tells them apart may be missing. Identical values can stand only once.

Legend:
MRGPRX4 (S83) = target: T1, MRGPRX4 (S83) (Homo sapiens, UniProt Q96LA9, L83S); test: EC50 determination, intracellular calcium mobilization in MRGPRX4 stably expressed HEK293 cells (FLIPR Calcium 5, Flexstation-3); assay type: cell-based; set-up: Fig. 1D dose-response, calcium mobilization response (individual replicate) / calcium mobilization response (Fig. 1D dose-response raw data): unit not given here; settings: for calcium mobilization response (Fig. 1D dose-response raw data): individual replicate values
T1 construct: expressed in transfected cells
Summary of the method: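 HEK293 cells stably expressing receptor (parental HEK293 alongside) loaded with Calcium 5 dye in HBSS/20 mM HEPES, pH 7.4, 1 h at 37 °C, then compounds added. Response = peak minus pre-drug baseline, triplicates averaged; EC50 from 4PL fit.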

MRGPRX4 WT (S83) = MRGPRX4 WT (S83) (Homo sapiens, UniProt Q96LA9, L83S); test: PRESTO-Tango β-arrestin recruitment assay, HTLA cells stably expressing WT (S83) MRGPRX4; assay type: cell-based; set-up: expressed in transfected cells; settings: for PRESTO-Tango response (fig. S1), single replicate: HTLA::MRGPRX4; for fig. S7 response (raw signal), concentration-response: WT, single replicate
Description: HTLA cells, a cell line derived from HEK293 and engineered to stably express a tTA-dependent luciferase reporter and a β-arrestin2-TEV fusion gene, were generously provided by Richard Axel's laboratory. HTLA cells were cultured in growth medium containing 2 μg/ml puromycin and 100 μg/ml hygromycin B in 5% CO2 at 37 °C. Stably MRGPRX4-expressing HTLA cells were generated by transfecting pcDNA3.1(+)-Zeo containing MRGPRX4-Tango construct (either with WT or S83L mutant sequence) into HTLA cells with Lipofectamine 3000 and selecting the successful transfected clones with Zeocin.
HTLA cells stably expressing either WT or S83L MRGPRX4 were seeded in PDL-coated 96-well white clear bottom cell culture plates with DMEM containing 10% FBS, at a density of 35,000 cells per well and were allowed to attach to the bottom of the wells overnight. The next day, growth medium was replaced with 100 μl of serum-free medium containing the tested drugs at various concentrations, and the cells were then incubated at 37°C for 24 h. On the following day, media with drug solutions was removed and 50 μl per well of Bright-Glo™ Reagent from Bright-Glo™ Luciferase Assay System (Promega) was loaded. The plate was incubated at room temperature in the dark for 5 min, and the relative luminescence units were measured using the Flexstation-3 instrument with SoftMax®Pro 7.1 software (Molecular Devices). Dose response curves and EC50s were analyzed as described above.
Data are from at least two independent experiments, each performed in
triplicate, and are depicted as mean ± SEM.
arrestin2-TEV fusion gene and a tTA -dependent luciferase reporter.

[1] = IV, clinical trials; ref New Drug Application: 020450; cited from earlier work
NP2-WT mice = test: Itch behavioral study (scratching bouts after subcutaneous nape injection) in littermate control NP2-WT mice; assay type: in vivo; settings: 30 min after injection of 50 μl 10 mM into the nape, each cell one mouse
From the text: Fig. 2. Phosphate monoester prodrugs induce itch in NP2-MRGPRX4+ mice through activating NP2 primary sensory neurons. (A) Mating strategy to generate NP2-X4+ mice. (B) In situ hybridization showing MRGPRX4 transcripts (magenta) in NP2-X4+ DRG as indicated by arrowheads (left) but not in littermate control NP2-WT (right). NP2 subpopulation accounts for 5% of total DRG neurons. DAPI, blue. Scale bar, 50 μm. […] . Data are expressed as mean ± SEM. *p< 0.05, **p< 0.01 and ***p< 0.001 by two-tailed unpaired Student’s t-test. ns = no statistical significance observed. (D and E) Traces of average (top, depicted as mean ± 95% confidence interval) and individual (bottom, reflected by the heatmap) calcium activity, measured by fluorescence intensity normalized to the baseline intensity (FT/F0) over time of NP2-X4+ (D) and NP2-WT (E) DRG neurons labelled with GCaMP6s (n = 110–150 neurons pooled from 3–7 independent culture vessels from 2–4 mice in each condition). 10 μM phospho-drugs and 1 mM CQ were added as indicated by the arrowheads. Neurons with FT/F0 > 1.5 after compound application were considered a positive responder. NP2-X4+: NP2-MRGPRX4+; DRG, dorsal root ganglia; CQ: chloroquine.
. All the animals used were heterozygous unless otherwise specified. NP2-X4+ and NP2-WT littermates were generated by crossing Mrgpra3-Cre to Rosa26-lsl-MRGPRX4 as detailed previously ([15]). NP2-X4+ mice were further crossed to homozygous Rosa26-lsl-GCaMP6s to obtain NP2-WT/GCaMP6s and NP2-X4+/GCaMP6s animals. A detailed mating strategy is illustrated in fig. S5. Pirt-Cre-GCaMP6s animals were acquired by crossing Pirt-Cre to homozygous Rosa26-lsl-GCaMP6s. Pirt-Cre animals were generated through homologous recombination as indicated previously ([37]). Rosa26-lsl-GCaMP6s mouse line was provided by Dr. Dwight Bergles’ lab at the Johns Hopkins School of Medicine.

Chain of MRGPRX4 WT (S83) (Q96LA9 whole entry L83S, the tested form may be a part): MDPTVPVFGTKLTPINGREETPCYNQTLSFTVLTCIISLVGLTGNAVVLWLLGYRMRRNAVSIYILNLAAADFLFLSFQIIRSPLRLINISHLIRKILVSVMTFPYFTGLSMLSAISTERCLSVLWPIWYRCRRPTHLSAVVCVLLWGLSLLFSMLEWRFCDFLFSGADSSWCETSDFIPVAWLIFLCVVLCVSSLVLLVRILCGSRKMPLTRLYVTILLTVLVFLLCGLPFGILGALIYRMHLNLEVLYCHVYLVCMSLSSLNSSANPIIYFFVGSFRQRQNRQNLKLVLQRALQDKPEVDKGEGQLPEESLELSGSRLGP
T1 sequence (Q96LA9 whole entry L83S): as the sequence (Q96LA9 whole entry L83S, the tested form may be a part) above

## O=C1NC(c2ccccc2)(c2ccccc2)C(=O)N1COP(=O)(O)O [Fosphenytoin]
MRGPRX4 (S83); MRGPRX4 stably expressed HEK293 cells, calcium mobilization, read-out: EC50
  pEC50: 7.11
MRGPRX4 (S83); concentration 3.90625e-9 M
  calcium mobilization response (Fig. 1D dose-response raw data): 21.206 and 25.291 and 2.769 and 3.958 and -8.2623 and 8.875 and 8.837 and 9.145 and 8.934
MRGPRX4 (S83); concentration 7.8125e-9 M
  calcium mobilization response (Fig. 1D dose-response raw data): -14.542 and 13.805 and 7.794 and 12.8387 and 12.8087 and 12.5987 and 3.298 and 9.875 and 9.477
MRGPRX4 (S83); concentration 1.5625e-8 M
  calcium mobilization response (Fig. 1D dose-response raw data): 19.866 and 22.527 and 5.041 and 1.449 and 6.253 and 14.7987 and -3.2365 and 13.5705 and -5.8765
MRGPRX4 (S83); concentration 3.125e-8 M
  calcium mobilization response (Fig. 1D dose-response raw data): 57.235 and 30.337 and 81.497 and 17.5777 and 19.6667 and 31.6637 and -30.287 and 41.9265 and -1.7705
MRGPRX4 (S83); concentration 6.25e-8 M
  calcium mobilization response (Fig. 1D dose-response raw data): 190.544 and 229.236 and 134.524 and 58.9937 and 67.8137 and 76.3827 and 88.4165 and 111.221 and 55.6105
MRGPRX4 (S83); concentration 1.25e-7 M
  calcium mobilization response (Fig. 1D dose-response raw data): 316.003 and 301.004 and 304.213 and 117.536 and 116.768 and 79.1877 and 194.175 and 173.792 and 144.932
MRGPRX4 (S83); concentration 2.5e-7 M
  calcium mobilization response (Fig. 1D dose-response raw data): 345.7 and 324.779 and 337.838 and 121.175 and 136.568 and 118.794 and 200.38 and 226.084 and 171.163
MRGPRX4 (S83); concentration 5e-7 M
  calcium mobilization response (Fig. 1D dose-response raw data): 387.516 and 373.964 and 353.304 and 134.73 and 112.159 and 119.649 and 195.132 and 238.81 and 185.954
MRGPRX4 (S83); concentration 1e-6 M
  calcium mobilization response (Fig. 1D dose-response raw data): 410.183 and 413.027 and 415.898 and 143.736 and 123.579 and 132.916 and 226.932 and 271.213 and 250.762
MRGPRX4 (S83); concentration 2e-6 M
  calcium mobilization response (Fig. 1D dose-response raw data): 394.314 and 370.112 and 382.271 and 127.759 and 125.948 and 138.324 and 218.164 and 295.676 and 255.523
MRGPRX4 (S83); dose-response curve fitting, table S1
  Hill coefficient: 1.917
MRGPRX4 WT (S83); concentration 1.95e-7 M
  PRESTO-Tango response (fig. S1), single replicate: 0.2272 and 0.1839 and 0.1708 and 0.08379 and 0.0626 and 0.06306
MRGPRX4 WT (S83); concentration 3.91e-7 M
  PRESTO-Tango response (fig. S1), single replicate: 0.258 and 0.2297 and 0.204 and 0.07839 and 0.196 and 0.08224
MRGPRX4 WT (S83); concentration 7.81e-7 M
  PRESTO-Tango response (fig. S1), single replicate: 0.5296 and 0.4272 and 0.4321 and 0.1295 and 0.1604 and 0.1155
MRGPRX4 WT (S83); concentration 1.56e-6 M
  PRESTO-Tango response (fig. S1), single replicate: 1.193 and 1.025 and 0.8155 and 0.2489 and 0.1773 and 0.193
MRGPRX4 WT (S83); concentration 3.13e-6 M
  PRESTO-Tango response (fig. S1), single replicate: 2.598 and 2.433 and 2.514 and 0.4404 and 0.5024 and 0.4535
MRGPRX4 WT (S83); concentration 6.25e-6 M
  PRESTO-Tango response (fig. S1), single replicate: 5.285 and 4.4353 and 4.292 and 0.9622 and 0.8766 and 0.6627
MRGPRX4 WT (S83); concentration 1.25e-5 M
  PRESTO-Tango response (fig. S1), single replicate: 7.96 and 6.958 and 5.919 and 1.839 and 1.437 and 1.511
MRGPRX4 WT (S83); concentration 2.5e-5 M
  PRESTO-Tango response (fig. S1), single replicate: 10.7681 and 8.616 and 8.444 and 2.5381 and 2.199 and 2
MRGPRX4 WT (S83); concentration 5e-5 M
  PRESTO-Tango response (fig. S1), single replicate: 10.7109 and 8.966 and 9.235 and 2.8872 and 2.833 and 2.449
MRGPRX4 WT (S83); concentration 0.0001 M
  PRESTO-Tango response (fig. S1), single replicate: 9.427 and 8.942 and 7.727 and 3.267 and 2.882 and 2.338
MRGPRX4 WT (S83); concentration 0.0002 M
  PRESTO-Tango response (fig. S1), single replicate: 8.979 and 8.052 and 6.854 and 2.562 and 2.3992 and 2.255
MRGPRX4 WT (S83); 1.95e-7 M
  fig. S7 response (raw signal), concentration-response: 22724.6 and 18390.5 and 17083.6 and 8378.77 and 6259.78 and 6305.82 and 12291.8 and 11793.8 and 15486
MRGPRX4 WT (S83); 3.91e-7 M
  fig. S7 response (raw signal), concentration-response: 25803.9 and 22965.5 and 20401.3 and 7839.11 and 19602.9 and 8224.03 and 24524.9 and 14963.1 and 12930.4
MRGPRX4 WT (S83); 7.81e-7 M
  fig. S7 response (raw signal), concentration-response: 52955.5 and 42723 and 43213.9 and 12950.5 and 16037.6 and 11551.5 and 30971.1 and 30307.2 and 28437.7
MRGPRX4 WT (S83); 1.56e-6 M
  fig. S7 response (raw signal), concentration-response: 119282 and 102488 and 81549.3 and 24892.1 and 17734.6 and 19298.5 and 55751 and 73836.3 and 53034.5
MRGPRX4 WT (S83); 3.13e-6 M
  fig. S7 response (raw signal), concentration-response: 259763 and 243320 and 251368 and 44035.9 and 50243.2 and 45345.4 and 138332 and 159511 and 149195
MRGPRX4 WT (S83); 6.25e-6 M
  fig. S7 response (raw signal), concentration-response: 528451 and 443530 and 429228 and 96221.6 and 87656.1 and 66266.7 and 291383 and 234158 and 300136
MRGPRX4 WT (S83); 1.25e-5 M
  fig. S7 response (raw signal), concentration-response: 795954 and 695772 and 591944 and 183925 and 143683 and 151143 and 437126 and 336645 and 507439
MRGPRX4 WT (S83); 2.5e-5 M
  fig. S7 response (raw signal), concentration-response: 1076811 and 861577 and 844388 and 253810 and 219862 and 200044 and 648692 and 547623 and 531932
MRGPRX4 WT (S83); 5e-5 M
  fig. S7 response (raw signal), concentration-response: 1071085 and 896572 and 923510 and 288720 and 283304 and 244853 and 667677 and 558954 and 627391
MRGPRX4 WT (S83); 0.0001 M
  fig. S7 response (raw signal), concentration-response: 942731 and 894246 and 772701 and 326668 and 288202 and 233769 and 534832 and 581310 and 583017
MRGPRX4 WT (S83); 0.0002 M
  fig. S7 response (raw signal), concentration-response: 897926 and 805208 and 685441 and 256156 and 239920 and 225546 and 318639 and 44935
[1]
  Patients who reported itch: 48.9%
NP2-WT mice
  Scratching bouts of individual animals: 33 and 0 and 2 and 9 and 5 and 14 and 6 and 20 and 4
